Data as given in patent US8728797B2, “Yeast membrane protein expression system and its application in drug screening” (priority 2001, dated 2014).
≈ marks a conversion by molar mass, not a printed value.

Tests used:
S. cerevisiae AD1-8u^− = assay: MIC microdilution test, parental strain; format: cell-based; conditions: Saccharomyces cerevisiae; AD1-8u^− parental strain; 30° C., 48 h, pH 7.0
Protocol: The MICs of antifungal agents for S. cerevisiae cells were determined by a microdilution test based on the macrodilution reference method of the National Committee for Clinical Laboratory Standards. Cells (10 μl cell suspension, 2×10^5 cells/ml) were inoculated into 90 μl CSM-URA, buffered with 10 mM 2-(N-morpholino)ethanesulfonic acid (MES) and 18 mM N-2-hydroxyethylpiperazine-N′-2-ethanesulfonic acid (HEPES), pH 7.0 and containing 0.67% (w/v) yeast nitrogen base (YNB) in microtitre plate wells. For the uracil-requiring strain AD1-8u^− the medium was supplemented with 0.02% (w/v) uridine. The wells contained, in […], doubling dilutions of antifungal agents (final concentrations: fluconazole, 40-0.078 μg/ml; itraconazole and ketoconazole, 8-0.016 μg/ml). The microtitre plates were incubated at 30° C. for 48 h with shaking and then the growth of cells in individual wells (OD590) was measured with a microplate reader (EL 340, Bio-Tek, Winooski, Vt.). The MIC80 was the lowest concentration of drug that inhibited growth yield by at least 80% compared to a no-drug control.

AD-CDR1 (Cdr1p) = assay: Disk diffusion assay, AD-CDR1; format: cell-based, S. cerevisiae; conditions: AD-pABC as negative control, 30° C., 48 h
Protocol: The cells were spread on CSM-agar plates and exposed to the drugs or chemicals applied to filter disks and incubated at 30° C. for 48 h. The amounts of individual drugs are given in the Materials and Methods section of Example 3. Rhodamine 6G and rhodamine 123 were dissolved in ethanol and the other antifungals were dissolved in DMSO.
Drug susceptibility was measured using disk assays on CSM-URA plates (containing 1.5% w/v agar). Yeast cells (200 μl ml of 5×10^6 cells/ml) were spread on the plates. 10 μl of drug solution or solvent control were spotted onto sterile Whatman paper disks on the pre-spread plates. The following amounts (nmoles) of drugs were applied to individual disks: fluconazole, 633 (Pfizer Ltd., Sandwich, Kent, United Kingdom); itraconazole, 0.23 (Janssen); miconazole, 0.42 (Janssen); cycloheximide, 0.71 (Sigma); rhodamine 6G, 100 (Sigma, Penrose, Auckland, N. Z.); rhodamine 123, 125 (Sigma); cerulenin 4.5 (Sigma); 5-flucytosine 100 (Sigma); amphotericin B, 97 (E. R. Squibb & Sons, Princeton, N.J.); nystatin 65 (Sigma). Agar plates were incubated at 30° C. for 48 h or until clear growth inhibition zones were visible.

AD124567 cells = assay: Glucose-dependent rhodamine 6G efflux; format: cell-based, S. cerevisiae; conditions: 40 μM KN20, 5 minute preincubation
Protocol: De-energised cells were pre-loaded with rhodamine 6G, as described in Materials and methods for Example 4. The efflux of rhodamine 6G at 30° C. was followed by direct measurement of fluorescence in cell supernatants following glucose (2 mM) addition to cell suspensions. (A) The kinetics of energy-dependent rhodamine 6G efflux in strains AD1002 (▪) and AD1-8u^− (●). The fluorescence in supernatants of AD1002 cells in the absence of added glucose is also shown (◯). (B) The effect of KN20 concentration on the energy-dependent efflux of rhodamine 6G from AD124567 cells. The indicated concentrations of KN20 were added to AD124567 cells preloaded with rhodamine 6G, the cells were preincubated for 5 minutes at 30° C. and glucose added to commence rhodamine efflux.
A previously described method (Kolaczkowski, M et al. 1996) was adapted to measure rhodamine 6G (Sigma) efflux from whole cells. Yeast cells from exponentially growing cultures in YEPD (OD600 nm=0.5) were collected by centrifugation (3,000×g, 5 min, 20° C.) and washed three times with water. The washed cells were resuspended at a concentration of 0.5×10^6 to 1.0×10^7 cells per ml in HEPES-NaOH (50 mM, pH 7.0) containing 5 mM 2-deoxyglucose and 10 μM rhodamine 6G. […] The rhodamine 6G fluorescence of samples was measured using a Cary Eclipse spectrofluorimeter (Varian Inc, Victora Australia). […]

[1] = test system: AD124567 (Pdr5p-overexpressing); assay: Disk drug susceptibility assay of chemosensitisation to fluconazole; format: cell-based, S. cerevisiae; conditions: 120 μg/ml fluconazole, 47 nanomole peptide on disk
Protocol: (A) Checkerboard drug susceptibility assay of AD124567 in the presence of the indicated concentrations of fluconazole and KN20. (B) Disk drug susceptibility assay of AD124567. This assay was conducted, as described in Materials and methods for example 4, in the absence or presence of fluconazole (120 μg/ml), and in the presence of (1) KN0 (47 nanomole), (2) KN20 (47 nanomole) or (0) control amounts of DMSO applied to disks
Drug susceptibility was measured using disk assays on CSM-URA plates (containing 1.5% w/v agar). Plates were seeded with yeast cells suspended in top agar (5 ml, 10^5 cells/ml). For the uracil-dependent parental strain, agar was supplemented with 0.02% uridine. Five microliters of drug solution or solvent control were spotted onto sterile Whatman paper disks on the top agar. […]

Compound: OC(Cn1cncn1)(Cn1cncn1)c1ccc(F)cc1F [fluconazole]
- MIC80 (S. cerevisiae AD1-8u^−): 0.625 µg/mL (≈ 2.04 µM)
- resistance/sensitivity in disk diffusion assay (AD-CDR1 (Cdr1p)): resistances

Compound: D-octapeptide NH2-Asn-Trp-Trp-Lys-Val-Arg-Arg-Arg-CONH2 with a single 4-methoxy-2,3,6-trimethylbenzenesulphonyl (Mtr) substituent on one tryptophan sidechain; Pdr5p inhibitor [KN20]
- inhibition of rhodamine 6G efflux (AD124567 cells): 50%
- chemosensitisation to fluconazole in disk assay [1]: chemosensitisation
